Results: PMC9286045 (Journal of Peptide Science, 2021)
Where “and” joins values, the source holds several entries; their conditions need not be identical. Equal values may be shown once. Read-outs that look alike come from different tables or passages of the source. Numbered stars: 1 amine (or outer) side, 2 acyl side, 3 side chain; on linkers, the order of the positions; unused ones are H or OH. Bridge positions count the residues as written; N and C are the ends. Square brackets hold non-standard residues; d marks the D form. Peptide text beside a SMILES is read from it. Abu(4-yl) = O=C([C@H](CC[*:3])N[*:1])[*:2]; X1 = O=C([C@@H](O)CS[*:2])[*:1]; X2 = O=C(CCC[*:2])[*:1]

Assays:
[1] = system: OXT-receptor compartment of the potassium depolarized rat myometrium; test: Oil-immersion (stopped-transport) and washout time–response experiments on myometrium strips; settings: for Cumulative clearance k r + κ / k r (transport rate constant between receptor compartment and aqueous medium) / κ Observed (irreversible clearance rate constant in the receptor compartment): K+-depolarized rat myometrium strip ex vivo, 30°C, arithmetic mean ± SD of computation runs; for Cumulative clearance k r + κ: washout decay phase; for k r (transport rate constant between receptor compartment and aqueous medium): from combined oil-immersion and washout data; for κ Observed (irreversible clearance rate constant in the receptor compartment): high potassium Ringer medium (Ca2+, Mg2+ 0.5 mM), oil-immersion decay phase, isometric tension, nonlinear regression; for κ (N) − κ (D): κ-difference of coherent N & D pairs, value shared by both peptides of the pair, C1,6OT/DC1,6OT pair uses predicted κ
From the text: (§1) Female virgin Sprague–Dawley rats (body weight approximately 200 g) in natural oestrus (detected by vaginal smears) were sacrificed by decapitation, both uterus horns were dissected and the perimetrium was pulled off. Their middle sections (approximately 15 mm) were longitudinally cut into 3‐ to 4‐mm strips; the endometrium (the inward layer of the horns) was removed by scraping. In average, three strips of each animal (31 rats in total) were used in the experiments.
(§2) A stripe was mounted in an adapted annealed organ chamber (17 mm × 65 mm) with a ventilation inlet tube containing 10‐ml Munsick medium (see above) and attached to an isometric force transducer. The basic tension was adjusted to 10 ± 0.2 mN (1 gf, gram‐force). Measurements were carried out at 30°C under continuous ventilation with Carbogen gas (25% O2 + 5% CO2). […] Each strip used for stimulation by a single peptide (for concentration of stimulating agents, cf. Table 2). Oil‐immersion and washout experiments were carried out on different strips from the same animal. Stimulation runs (two to four per strip) for each peptide were repeated on strips of different rat uteri.
(§3) Tonic contraction of the depolarized myometrium strips in a high potassium Ringer organ bath medium[46] (concentration of Ca^2+ and of Mg^2+: 0.5 mM) was elicited by roughly equipotent concentrations of single peptides around their D 2 values (the concentration causes the half of the maximally attainable contraction in oestrogen‐dominated myometrium). After reaching a steady‐state level (stimulation phase), the medium was exchanged by a low viscosity paraffin oil (oil‐immersion phase) or alternatively by the peptide‐free bath medium (washout phase). The time‐tension profiles of the strip were recorded by an isometric force transducer (Statham strain gauge UC3).
(§4) We employed here its modified version focused on the comparison of clearance and transport rate constants (Figure 2). It consists virtually of two distribution spaces: the receptor compartment (subscript r; see Section 4) and the external aqueous tissue medium (w). The rate of mass transport of agents through the tissue‐medium interface (transport constants k r , k w ) is directly proportional to the rate constant of diffusion k (dimension: volume/time) and inversely proportional to the respective compartment volume V r , V w : for the receptor compartment k r = k/V r , for the medium k w = k/V w . The constant κ relates to the (irreversible) clearance rate from the receptor compartment (dimension: time^−1). The rate equations determining the time response of the peptide concentrations in the corresponding compartments (c r , c w ) are then (1a) c˙w=−kcw−cr/Vw, (1b) c˙r=kcw−cr/Vr−κcr, wherein dotted symbols denote first derivatives with respect to time t: x˙≡dx/dt . • In the stimulation phase, concentration c w is expected to be constant, c w = c 0 (and c˙w=0 ) within the time interval of stimulation; the integration of Equation 1b yields (2) crt=cr,∞1−e^−kr+κt, where c r,∞ is a steady state value of c r , (3) cr,∞≡limt→∞crt=c0kr/kr+κ.
(§5) • In the wash‐out decay phase, the concentration in the external medium (c w ) is kept zero by a quick perifusion; c r,∞ is the initial value (t = 0), i.e., a c r steady state value before termination of the stimulation phase, (4) crt=cr,∞e^−kr+κt.
(§6) The sum k r + κ stands for the cumulative clearance rate constant of the peptide in the receptor compartment. • The insertion of oil (oil‐immersion decay phase) reduces the volume V w to a small residual aqueous layer v w around the tissue; obviously, v w ≪ V w and the corresponding modified mass transport rate constant kw′=k/vw is very large, limvw→0kw′=∞ .

[2] = system: OXT-receptor compartment of the potassium depolarized rat myometrium; test: Fragmented inactivation model of GOT and DGOT (oil-immersion time–response data); assay type: in vitro ADME; settings: for κ AM (rate constant of residual clearance) / κ c (rate constant of ester hydrolysis [Glu(OMe)^4]‐X → [Glu^4]‐X): K+-depolarized rat myometrium, oil-immersion, arithmetic mean ± SD; for κ AM (rate constant of residual clearance): assumption κ A ≈ κ M, runs in parentheses; for κ c (rate constant of ester hydrolysis [Glu(OMe)^4]‐X → [Glu^4]‐X): nonlinear regression Equation 17, number of computation runs in parentheses, 95% confidence limits in < >; for Δκ AM: difference of mean values κ AM (GOT) − κ AM (DGOT), expected rate constant of N-terminal (aminopeptidase) splitting; for Estimates of κ: κ AM + κ c: sum of fragments
From the text: This is an alternative to model represented by Equation 12b, whereε A (t), ε M (t) are response fractions of the respective primary agents and of its active metabolite(s) (16a) ε˙At=−κc+κAεAt, (16b) ε˙Mt=κcεAt−κMεMt.
Figure 6 depicts the proposed reaction scheme.
Δ α = α M /α A is the standardised biological activity (e.g., in IU/mg). Exponential constants for GOT and DGOT were obtained by the nonlinear regression analysis using numeric procedures described above and are summarized in Table 3.

[3] = rats, cited from earlier work
[4] = human, in vivo; cited from earlier work
[5] = system: OXT-receptor compartment of the potassium depolarized rat myometrium
From the text: as §1, §2, §3, §4, §5, §6

uterus = settings: cited from earlier work

Compound	Cumulative clearance k r + κ [1] [min⁻¹]	k r (transport rate constant between receptor compartment and aqueous medium) [1] [min⁻¹]	κ Observed (irreversible clearance rate constant in the receptor compartment) [1]	κ (N) − κ (D) [1] [min⁻¹]	also measured
CC[C@H](C)[C@@H]1NC(=O)[C@H](Cc2ccc(O)cc2)NC(=O)[C@@H](N)CSSC[C@@H](C(=O)N2CCC[C@H]2C(=O)N[C@@H](CC(C)C)C(=O)NNC(N)=O)NC(=O)[C@H](CC(N)=O)NC(=O)[C@H](CCC(N)=O)NC1=O [AOT, [9‐Azaglycine]‐OXT]	0.278 ± 0.015	0.158 ± 0.020	0.118 ± 0.008 min⁻¹	0.076	
CC[C@H](C)[C@@H]1NC(=O)[C@H](Cc2ccc(O)cc2)NC(=O)[C@@H](N)CCCC[C@@H](C(=O)N2CCC[C@H]2C(=O)N[C@@H](CC(C)C)C(=O)NCC(N)=O)NC(=O)[C@H](CC(N)=O)NC(=O)[C@H](CCC(N)=O)NC1=O [C1,6OT, [1,6‐α′,α‐diaminosuberic acid]‐OXT]	0.263 ± 0.009	0.194 ± 0.011	0.076 ± 0.005 min⁻¹		
CC[C@H](C)[C@@H]1NC(=O)[C@H](Cc2ccc(O)cc2)NC(=O)CCSSC[C@@H](C(=O)N2CCC[C@H]2C(=O)N[C@@H](CC(C)C)C(=O)NNC(N)=O)NC(=O)[C@H](CC(N)=O)NC(=O)[C@H](CCC(N)=O)NC1=O [DAOT, [1‐β‐mercaptopropionic acid, 9‐azaglycine]‐OXT]	0.194 ± 0.033	0.139 ± 0.044	0.042 ± 0.015 min⁻¹	0.076	
CC[C@H](C)[C@@H]1NC(=O)[C@H](Cc2ccc(O)cc2)NC(=O)CCCSC[C@@H](C(=O)N2CCC[C@H]2C(=O)N[C@@H](CC(C)C)C(=O)NCC(N)=O)NC(=O)[C@H](CC(N)=O)NC(=O)[C@H](CCC(N)=O)NC1=O [DC1OT, [1,6‐(2‐Amino‐4‐thiasuberic acid)]‐OXT] (YIQNCPLG-NH2; linker N-5 via X2)	0.160 ± 0.021	0.097 ± 0.025	0.102 ± 0.016 min⁻¹	0.060	
CC[C@H](C)[C@@H]1NC(=O)[C@H](Cc2ccc(O)cc2)NC(=O)CCSSC[C@@H](C(=O)N2CCC[C@H]2C(=O)N[C@@H](CC(C)C)C(=O)NCC(N)=O)NC(=O)[C@H](CC(N)=O)NC(=O)[C@H](CCC(=O)OC)NC1=O [DGOT, [1‐β‐mercaptopropionic acid, 4‐glutamic acid‐δ‐methylester]‐OXT]	0.211 ± 0.027	0.107 ± 0.034	0.076 ± 0.018 min⁻¹ and 0.076 min⁻¹	0.092	κ AM (rate constant of residual clearance) [2]: 0.053 ± 0.014 (14) <0.045; 0.061> min^−1; κ c (rate constant of ester hydrolysis [Glu(OMe)^4]‐X → [Glu^4]‐X) [2]: 0.032 ± 0.011 (14) <0.025; 0.038> min^−1; Δκ AM [2]: 0.081 min⁻¹; Estimates of κ: κ AM + κ c [2]: 0.085 min⁻¹
CC[C@H](C)[C@@H]1NC(=O)[C@H](Cc2ccc(O)cc2)NC(=O)CCSSC[C@@H](C(=O)N2CCC[C@H]2C(=O)N[C@@H](CC(C)C)C(=O)NCC(N)=O)NC(=O)[C@H](CC(N)=O)NC(=O)[C@H](CCC(N)=O)NC1=O [DOT, [1‐β‐mercaptopropionic acid]‐OXT]	0.176 ± 0.024	0.149 ± 0.026	0.049 ± 0.021 min⁻¹	0.088	
CC[C@H](C)[C@@H]1NC(=O)[C@H](Cc2ccc(O)cc2)NC(=O)[C@@H](N)CSSC[C@@H](C(=O)N2CCC[C@H]2C(=O)N[C@@H](CC(C)C)C(=O)NCC(N)=O)NC(=O)[C@H](CC(N)=O)NC(=O)[C@H](CCC(=O)OC)NC1=O [GOT, [4‐Glutamic acid‐δ‐methylester]‐OXT]	0.267	0.108	0.166 min⁻¹	0.092	κ AM (rate constant of residual clearance) [2]: 0.134 ± 0.025 (12) <0.132; 0.135> min^−1; κ c (rate constant of ester hydrolysis [Glu(OMe)^4]‐X → [Glu^4]‐X) [2]: 0.033 ± 0.012 (22) <0.028; 0.038> min^−1; Δκ AM [2]: 0.081 min⁻¹; Estimates of κ: κ AM + κ c [2]: 0.167 min⁻¹
CC[C@H](C)[C@@H]1NC(=O)[C@H](Cc2ccc(O)cc2)NC(=O)[C@@H](O)CSSC[C@@H](C(=O)N2CCC[C@H]2C(=O)N[C@@H](CC(C)C)C(=O)NCC(N)=O)NC(=O)[C@H](CC(N)=O)NC(=O)[C@H](CCC(N)=O)NC1=O [HOT, [1‐(2‐Hydroxy‐3‐β‐mercaptopropanoic acid)]‐OXT] (YIQNCPLG-NH2; linker N-5 via X1)	0.289 ± 0.010	0.139 ± 0.012	0.141 ± 0.008 min⁻¹		
CC[C@H](C)[C@@H]1NC(=O)[C@H](Cc2ccc(O)cc2)NC(=O)[C@@H](N)CSSC[C@@H](C(=O)N2CCC[C@H]2C(=O)N[C@@H](CC(C)C)C(=O)NCC(N)=O)NC(=O)[C@H](CC(N)=O)NC(=O)[C@H](CCC(N)=O)NC1=O [OXT, Oxytocin, reference compound]	0.254 ± 0.028	0.137 ± 0.030	0.137 ± 0.025 min⁻¹	0.088	half‐life ([3]; regardless of gender and reproductive cycle): 1.65 min; elimination rate constant ([3]; related to the half-life of 1.65 min): 0.6 min⁻¹; half‐life in the blood plasma [4]: 1.5 to 8 min
CC[C@H](C)[C@@H]1NC(=O)[C@H](Cc2ccc(O)cc2)NC(=O)[C@@H](N)CCSC[C@@H](C(=O)N2CCC[C@H]2C(=O)N[C@@H](CC(C)C)C(=O)NCC(N)=O)NC(=O)[C@H](CC(N)=O)NC(=O)[C@H](CCC(N)=O)NC1=O [Peptide C1OT, [6,1‐Cystathionine]‐OXT] (H-[Abu(4-yl)]YIQNCPLG-NH2; thioether 1-6)	0.272 ± 0.037	0.116 ± 0.041	0.162 ± 0.032 min⁻¹	0.060	
[6,1‐(2‐Amino‐4‐thiasuberic acid)]‐OXT [DC6OT]					Cumulative clearance k r + κ [5]: 0.147 ± 0.015 min⁻¹; κ Observed (irreversible clearance rate constant in the receptor compartment) [5]: 0.105 ± 0.008 min⁻¹
[7‐glycine]‐oxytocin					ex vivo half‐life of uterotonic response as compared with oxytocin (uterus): considerably shorter half‐life
